Data taken from patent US20080171072A1, “OCULAR INSERTS CONTAINING APOMORPHINE” (priority 2006, published 2008).

Columns and labels:
[1] = Autoclaving of the casting solution; format: physicochemical; conditions: preliminary trial
canine patients [2] = tested on: canine patients
canine patients [3] = conditions: intravenous route
Description: On the report forms supplied with the product, if any of these occurred the clinicians were asked to grade them on a subjective scale of 1 to 5 with a score of 1 being mild and 5 being severe. The clinicians were also asked to rate the ease of use of the inserts for each case with a score of 5 being very easy to use and 1 being very difficult.

[4] = subjective scale, 5 severe, Median (25%-75%)

SMILES	stability under conditions required for autoclaving [1]	% of Patients, Success (canine patients [2]; intravenous 0.03-0.04 mg kg-1, emesis within 15 minutes, n 32) [%]	Time to emesis (canine patients [2]; intravenous 0.03-0.04 mg kg-1, median, n 32 (Success 29)) [min]	% of Patients, Failure (canine patients [2]; intravenous 0.03-0.04 mg kg-1, n 32) [%]	% of patients showing no emesis at all (canine patients [2]; intravenous route, n 32) [%]	Prolonged vomiting, Frequency (%) (canine patients [3]; n = 32)	Sedation, Frequency (%) (canine patients [3]; n = 32)	Tachycardia, Frequency (%) (canine patients [3]; n = 32)	Prolonged vomiting, Score (canine patients [3]; [4])	Sedation, Score (canine patients [3]; [4])	Tachycardia, Score (canine patients [3]; [4])
CN1CCc2cccc3c2[C@H]1Cc1ccc(O)c(O)c1-3 [apomorphine]	unstable	–	–	–	–	–	–	–	–	–	–
CN1CCc2cccc3c2[C@H]1Cc1ccc(O)c(O)c1-3.Cl [intravenous apomorphine, apomorphine HCI]	–	90.6	1.0	9.4	9.4	3.1	43.8	15.6	3 (3-3)	2 (1-2)	2 (2-3)
